One experiment addresses T1, Rheb (Homo sapiens, UniProt Q15382).
T1 construct: made in house
The experiment in a line: Rheb GTP Binding Domain Inhibition Assay. As to conditions: read-out: Rheb: % inh. On the procedure:
Protocol for Cdc42 and Rheb GTP Binding Domain Inhibition Assay
The following method was developed as specific assay for cdc42 and Rheb proteins.
• 25 mM Tris-HCl, pH 7.4 • 27 mM KCl • 137 mM NaCl • 1 mM MgCl2 • 1 mM DTT Buffer-II: • 50 mM Tris-HCl, pH 7.0 • 1 mM MgCl2 • 1 mM DTT
The small GTPases proteins cdc42 and Rheb were expressed as His-tagged proteins. For the assay, the cdc42 and Rheb purified small GTPases proteins were diluted in Buffer-I or Buffer-II to a final concentration of 10-30 μg/mL. 200 μL of each diluted protein was added to a nickel-coated 96-well plate and incubated overnight at […]. Then the protein solution was discarded and 200 μL of Buffer-I or Buffer-II was added to each well in the presence of 1% DMSO. Compounds to be tested were added to the protein-coated wells at final concentration of 20 μM, and incubated for 3 hours at room temperature with and without 10-30 μg/mL of Sos added to the final hour of the incubation. When performing IC50 measurements a serial dilution of all tested concentrations was added. Then Cy3-GTP or Cy5-GTP was added to each well to a final concentration of 100 nM. The labeled GTP was incubated for 45 minutes at room temperature. Following GTP incubation, wells were washed 3× in Buffer-I or Buffer-II and 200 μL of Buffer-I or Buffer-II was added to each well. Following washes, the amount of bound labeled-GTP was measured using a SpectraMax M3 (Molecular Devices).

In a further experiment the test system is MAPK p38 phosphorylation. The experiment in a line: MAPK p38 Activation Assay (western blot), Panc-1. As to conditions: at 10 μM, Panc-1 pancreatic cancer cell line; starred symbols = activation. It counts as cell-based, human. The method in brief:
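Panc-1 cells (KRas G12D) were treated with compound for 6 h at 37 °C, at 10 μM or as serial dilutions for IC50, with 0.3% DMSO. Method 1 used overnight serum-starved cells (0.5% FBS) stimulated with 1.5 ng/ml EGF for 15 min; Method 2 used unstimulated cells in 10% FBS. Phospho-p38 (Thr180/Tyr182) was detected by western blot.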
(In western blotting, separated proteins are transferred to a membrane and probed.)

Another experiment concerns JNK phosphorylation. The experiment is described as follows: JNK Activation Assay (western blot), Panc-1. It counts as cell-based, human. To be noted: at 10 μM, Panc-1 pancreatic cancer cell line; starred symbols = activation. Here is the method: Protocol for JNK Activation Assay
This assay is referred to as the “JNK Activation Assay” throughout this application.
Cell lines: Human tumor-derived pancreatic cancer cell line Panc-1 (expressing KRas […] mutant) was purchased from American Type Culture Collection and grown in complete DMEM-High Glucose medium, supplemented with penicillin (100 U/mL), streptomycin (100 μg/mL), and 10% heat-inactivated FBS at 37° C. in a humidified incubator with 5% CO2.
Method 1: Cells were plated at 350000 cells/well density in a 12-well plate, allowed 3 hours to adhere to the plate, then starved in the appropriate medium in the presence of 0.5% FBS overnight. The small molecules to be tested were added to the cells in the final concentration of 10 μM in the presence of 0.3% DMSO for 6 hours incubation at 37° C. For IC50 value determination, serial dilutions of compounds were added to cells under the same conditions. Next, cells were stimulated with 1.5 ng/ml EGF for 15 minutes then cells were lysed with lysis buffer containing 1% Triton X-100, EDTA, and Halt™ Protease & Phosphatase Inhibitor Cocktail (Thermo Scientific). Protein concentration was assessed by BCA protein assay (Thermo Scientific). Phosphorylation level of JNK was determined by western blot.
Method 2: Cells were plated at 350000 cells/well density in a 12-well plate in the presence of 10% FBS. The next day small molecules to be tested were added to the cells in the final concentration of 10 μM in the presence of 0.3% DMSO for 6 hours incubation at 37° C. For IC50 value determination, serial dilutions of compounds were added to cells under the same conditions. Next, cells were lysed with lysis buffer containing 1% Triton X-100, EDTA, and Halt™ Protease & Phosphatase Inhibitor Cocktail (Thermo Scientific). Protein concentration was assessed by BCA protein assay (Thermo Scientific). Phosphorylation level of JNK was determined by western blot.
Western blot protocol: Equal amounts of protein (15-50 μg) were separated by SDS-PAGE and transferred to nitrocellulose membranes (Invitrogen by Thermo Fisher Scientific). The membrane was stained with Ponceau S Stain (Boston BioProducts) to verify uniform protein loading. Membranes were blocked with 10% milk and phosphorylation levels of JNK were assessed by incubating overnight at 4° C. with the antibody Phospho-SAPK/JNK (Thr183/Tyr185), from Cell Signaling Technology. Then the membranes were incubated with HRP-conjugated secondary antibody (Jackson Immunoresearch, West Grove, PA). Bands were incubated in Amersham ECL Prime Western Blotting Detection Reagent (GE Healthcare) and visualized using the ChemiDoc MP imaging system (Bio-Rad).

Each structure is given as a SMILES string.

T1 sequence (Q15382 whole entry): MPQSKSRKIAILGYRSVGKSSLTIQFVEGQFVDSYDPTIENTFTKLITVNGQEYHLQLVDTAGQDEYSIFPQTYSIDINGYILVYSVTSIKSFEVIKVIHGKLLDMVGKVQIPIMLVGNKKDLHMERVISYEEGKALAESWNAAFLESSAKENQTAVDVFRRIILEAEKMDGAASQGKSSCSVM

Take `COc1cc(-c2cn3nc(-c4nccn4C)nc(Nc4cc(OC)ncn4)c3c2C)ccn1` [Compound 50, 6-(2-Methoxypyridin-4-yl)-N-(6-methoxypyrimidin-4-yl)-5-methyl-2-(1-methyl-1H-imidazol-2-yl)pyrrolo[2,1-f][1,2,4]triazin-4-amine]: at Rheb, the inhibition at 20 µM lay in the range of 26 to 49%.

For the compound `COC1CCCN(c2nc(-c3ccccn3)nn3cc(-c4ccn(C(C)C)n4)c(-c4ccccc4)c23)C1` (racemic) [Compound 27, rac 6-(1-Isopropyl-1H-pyrazol-3-yl)-4-(3-methoxypiperidin-1-yl)-5-phenyl-2-(pyridin-2-yl)pyrrolo[2,1-f][1,2,4]triazine], in the experiment on MAPK p38 phosphorylation, the “% inh of MAPK p38 in Panc-1” value is “H* (H* ≥ 100% activation)”. For the same compound, in the experiment on JNK phosphorylation, the “% inh of JNK in Panc-1” value is on record as “H* (H* ≥ 100% activation)”.

On to `CO[C@H]1CC[C@@H](Nc2nc(-c3nccn3C)nn3cc(-c4ccn(C(C)C)n4)c(C(C)C)c23)C1` (racemic) [Compound 36, rac 5-Isopropyl-6-(1-isopropyl-1H-pyrazol-3-yl)-N-((1R,3S)-3-methoxycyclopentyl)-2-(1-methyl-1H-imidazol-2-yl)pyrrolo[2,1-f][1,2,4]triazin-4-amine], for which the “% inh of MAPK p38 in Panc-1” value in the experiment on MAPK p38 phosphorylation is reported as “H* (H* ≥ 100% activation)”. Moreover, in the experiment on JNK phosphorylation, the “% inh of JNK in Panc-1” value was “H* (H* ≥ 100% activation)”.

Turning to `COc1cc(Nc2nc(-c3nccn3C)nn3cc(-c4ccncc4)c(C)c23)ncn1` [Compound 49, N-(6-Methoxypyrimidin-4-yl)-5-methyl-2-(1-methyl-1H-imidazol-2-yl)-6-(pyridin-4-yl)pyrrolo[2,1-f][1,2,4]triazin-4-amine], the inhibition at 20 µM on Rheb fell in the range of 26 to 49%.

Take `COCC1CCN(c2nc(-c3ccccn3)nn3cc(-c4ccn(C(C)C)n4)c(-c4ccccc4)c23)C1` (racemic) [Compound 25, rac 6-(1-Isopropyl-1H-pyrazol-3-yl)-4-(3-(methoxymethyl)pyrrolidin-1-yl)-5-phenyl-2-(pyridin-2-yl)pyrrolo[2,1-f][1,2,4]triazine]: in the experiment with MAPK p38 phosphorylation, the “% inh of MAPK p38 in Panc-1” value is reported as “H* (H* ≥ 100% activation)”. The “% inh of JNK in Panc-1” value with JNK phosphorylation was “H* (H* ≥ 100% activation)”.

Take `COc1ccc(Nc2nc(-c3nccn3C)nn3cc(-c4ccn(C(C)C)n4)c(C)c23)nn1` [Compound 74, 6-(1-Isopropyl-1H-pyrazol-3-yl)-N-(6-methoxypyridazin-3-yl)-5-methyl-2-(1-methyl-1H-imidazol-2-yl)pyrrolo[2,1-f][1,2,4]triazin-4-amine]: the inhibition at 20 µM on Rheb is 0%.

Consider `COc1cccc(Nc2nc(-c3nccn3C)nn3cc(-c4ccn(C(C)C)n4)c(-c4ccccc4)c23)n1` [Compound 23, 6-(1-Isopropyl-1H-pyrazol-3-yl)-N-(6-methoxypyridin-2-yl)-2-(1-methyl-1H-imidazol-2-yl)-5-phenylpyrrolo[2,1-f][1,2,4]triazin-4-amine], for which the “% inh of MAPK p38 in Panc-1” value in the experiment on MAPK p38 phosphorylation was “H* (H* ≥ 100% activation)”. Moreover, in the experiment with JNK phosphorylation, the “% inh of JNK in Panc-1” value is reported as “H* (H* ≥ 100% activation)”.

Take `COc1cc(Nc2nc(-c3nccn3C)nn3cc(-c4cccnc4)c(C)c23)ncn1` [Compound 48, N-(6-Methoxypyrimidin-4-yl)-5-methyl-2-(1-methyl-1H-imidazol-2-yl)-6-(pyridin-3-yl)pyrrolo[2,1-f][1,2,4]triazin-4-amine]: at Rheb, the inhibition at 20 µM was 50 to 75%.

For `CO[C@H]1CC[C@@H](Nc2nc(-c3ccccn3)nn3cc(-c4ccn(C(C)C)n4)c(-c4ccccc4)c23)C1` (racemic) [Compound 24, rac 6-(1-Isopropyl-1H-pyrazol-3-yl)-N-((1R,3S)-3-methoxycyclopentyl)-5-phenyl-2-(pyridin-2-yl)pyrrolo[2,1-f][1,2,4]triazin-4-amine], the “% inh of MAPK p38 in Panc-1” value in the experiment with MAPK p38 phosphorylation is on record as “H* (H* ≥ 100% activation)”. Besides, the “% inh of JNK in Panc-1” value with JNK phosphorylation is recorded as “H* (H* ≥ 100% activation)”.

In the case of `COCCCNc1nc(-c2nccn2C)nn2cc(-c3cccc(OC)c3Cl)c(-c3ccccc3)c12` [Compound 30, 6-(2-Chloro-3-methoxyphenyl)-N-(3-methoxypropyl)-2-(1-methyl-1H-imidazol-2-yl)-5-phenylpyrrolo[2,1-f][1,2,4]triazin-4-amine], the “% inh of MAPK p38 in Panc-1” value with MAPK p38 phosphorylation is recorded as “F (F = 31-74% inhibition)”. The “% inh of JNK in Panc-1” value in the experiment on JNK phosphorylation was “F (F = 31-74% inhibition)”.

Consider `COCCNc1nc(-c2nccn2C)nn2cc(-c3cccc(OC)c3Cl)c(-c3ccccc3)c12` [Compound 29, 6-(2-Chloro-3-methoxyphenyl)-N-(2-methoxyethyl)-2-(1-methyl-1H-imidazol-2-yl)-5-phenylpyrrolo[2,1-f][1,2,4]triazin-4-amine], for which the “% inh of MAPK p38 in Panc-1” value with MAPK p38 phosphorylation is “H (H = 100% inhibition)”. Further, the “% inh of JNK in Panc-1” value in the experiment with JNK phosphorylation was “H (H = 100% inhibition)”.

As to `COC[C@@H]1CC[C@@H]1CNc1nc(-c2ccccn2)nn2cc(-c3ccn(C(C)C)n3)c(-c3ccccc3)c12` (racemic) [Compound 26, rac 6-(1-Isopropyl-1H-pyrazol-3-yl)-N-(((1S,2R)-2-(methoxymethyl)cyclobutyl)methyl)-5-phenyl-2-(pyridin-2-yl)pyrrolo[2,1-f][1,2,4]triazin-4-amine], the “% inh of MAPK p38 in Panc-1” value with MAPK p38 phosphorylation is given as “H* (H* ≥ 100% activation)”. Also, the “% inh of JNK in Panc-1” value in the experiment on JNK phosphorylation is “H* (H* ≥ 100% activation)”.

On to `COc1cccc(-c2cn3nc(-c4nccn4C)nc(N[C@H]4C[C@@H](OC)C4)c3c2-c2ccccc2)c1Cl` [Compound 31, 6-(2-Chloro-3-methoxyphenyl)-N-((1s,3s)-3-methoxycyclobutyl)-2-(1-methyl-1H-imidazol-2-yl)-5-phenylpyrrolo[2,1-f][1,2,4]triazin-4-amine], for which, in the experiment with MAPK p38 phosphorylation, the “% inh of MAPK p38 in Panc-1” value is given as “H* (H* ≥ 100% activation)”. Besides, the “% inh of JNK in Panc-1” value with JNK phosphorylation is reported as “H* (H* ≥ 100% activation)”.

For `COCCNc1nc(-c2nccn2C)nn2cc(-c3ccn(C(C)C)n3)c(C(C)C)c12` [Compound 35, 5-Isopropyl-6-(1-isopropyl-1H-pyrazol-3-yl)-N-(2-methoxyethyl)-2-(1-methyl-1H-imidazol-2-yl)pyrrolo[2,1-f][1,2,4]triazin-4-amine], the “% inh of MAPK p38 in Panc-1” value in the experiment on MAPK p38 phosphorylation is “H* (H* ≥ 100% activation)”. For the same compound, the “% inh of JNK in Panc-1” value with JNK phosphorylation was “H* (H* ≥ 100% activation)”.

For the compound `COc1cccc(-c2cn3nc(-c4nccn4C)nc(O)c3c2-c2ccccc2)c1Cl` [Compound 28, 6-(2-Chloro-3-methoxyphenyl)-2-(1-methyl-1H-imidazol-2-yl)-5-phenylpyrrolo[2,1-f][1,2,4]triazin-4-ol], the “% inh of MAPK p38 in Panc-1” value with MAPK p38 phosphorylation is “H* (H* ≥ 100% activation)”. The “% inh of JNK in Panc-1” value with JNK phosphorylation is “H* (H* ≥ 100% activation)”.

As for `COc1cccc(-c2cn3nc(-c4nccn4C)nc(N[C@@H]4CC[C@H](OC)C4)c3c2-c2ccccc2)c1Cl` (racemic) [Compound 33, rac 6-(2-Chloro-3-methoxyphenyl)-N-((1R,3S)-3-methoxycyclopentyl)-2-(1-methyl-1H-imidazol-2-yl)-5-phenylpyrrolo[2,1-f][1,2,4]triazin-4-amine], in the experiment on MAPK p38 phosphorylation, the “% inh of MAPK p38 in Panc-1” value was “H (H = 100% inhibition)”. The “% inh of JNK in Panc-1” value in the experiment with JNK phosphorylation was “G (G = 75-99% inhibition)”.
